This assay addresses IRAK4 (Homo sapiens (Human), UniProt Q9NWZ3). Put plainly: IRAK4 Inhibition Assay. The class given is biochemical. The following applies: ATP 500 μM; FL-IPTSPITTTYFFFKKK peptide 1.5 μM; IRAK4 0.6 nM; 60 min at room temperature; Caliper LabChip 3000. How it is done: The assays were performed in U-bottom 384-well plates. The final assay volume was 30 μL prepared from 15 μL additions of enzyme and substrates (fluoresceinated peptide and ATP) and test compounds in assay buffer (20 mM HEPES pH 7.2, 10 mM MgCl2, 0.015% Brij35 and 4 mM DTT). The reaction was initiated by the combination of IRAK4 with substrates and test compounds. The reaction was incubated at room temperature for 60 min. and terminated by adding 45 μL of 35 mM EDTA to each sample. The reaction mixture was analyzed on the Caliper LabChip 3000 (Caliper, Hopkinton, Mass.) by electrophoretic separation of the fluorescent substrate and phosphorylated product. Inhibition data were calculated by comparison to no enzyme control reactions for 100% inhibition and vehicle-only reactions for 0% inhibition. The final concentrations of reagents in the assays are ATP, 500 μM; FL-IPTSPITTTYFFFKKK peptide 1.5 μM; IRAK4, 0.6 nM; and DMSO, 1.6%.

By IC50 is commonly meant the concentration that inhibits the measured activity by half.

IRAK4, sequence (Q9NWZ3 whole entry): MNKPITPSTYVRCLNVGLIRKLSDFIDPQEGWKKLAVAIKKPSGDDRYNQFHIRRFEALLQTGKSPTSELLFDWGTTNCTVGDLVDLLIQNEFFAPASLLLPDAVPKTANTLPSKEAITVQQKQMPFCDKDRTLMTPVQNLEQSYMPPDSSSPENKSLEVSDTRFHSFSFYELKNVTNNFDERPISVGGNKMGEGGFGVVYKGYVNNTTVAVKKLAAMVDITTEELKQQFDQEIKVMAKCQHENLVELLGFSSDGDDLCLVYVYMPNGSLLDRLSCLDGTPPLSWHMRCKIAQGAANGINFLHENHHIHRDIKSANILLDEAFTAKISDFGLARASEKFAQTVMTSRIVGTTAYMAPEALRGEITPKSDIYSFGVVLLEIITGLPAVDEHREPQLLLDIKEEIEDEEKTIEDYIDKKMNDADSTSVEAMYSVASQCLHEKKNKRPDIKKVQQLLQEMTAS

For the molecule `CNC(=O)c1nc(-c2cnc(Nc3ccc4ncsc4c3)cc2NC(C)C)sc1C` [Example 27, 2-(6-(benzo[d]thiazol-6-ylamino)-4-(isopropylamino)pyridin-3-yl)-N,5-dimethylthiazole-4-carboxamide], the IC50 came to 1.8 nM.

The record behind these values is patent publication US9242975B2, “Heterocyclic-substituted pyridyl compounds useful as kinase inhibitors” (Bristol-Myers Squibb Company, priority 2012, dated 2016).
